Assay: molar heat capacity at constant volume
Conditions: Fluid (supercritical or subcritical phases), Vacuum adiabatic calorimetry

CCC(C)O (stereo not given) [butan-2-ol]
Conditions | molar heat capacity at constant volume [J/K/mol]
307.37 K, Mass density=794.06 kg/m3 | 167.81
307.62 K, Mass density=794.06 kg/m3 | 154.62
307.87 K, Mass density=794.06 kg/m3 | 157.58
308.12 K, Mass density=794.06 kg/m3 | 160.7
308.37 K, Mass density=794.06 kg/m3 | 163.88
308.62 K, Mass density=794.06 kg/m3 | 165.44
308.87 K, Mass density=794.06 kg/m3 | 167.74
309.12 K, Mass density=794.06 kg/m3 | 167.81
309.37 K, Mass density=794.06 kg/m3 | 168.4
309.62 K, Mass density=794.06 kg/m3 | 167.22
311.11 K, Mass density=794.06 kg/m3 | 182.78
321.67 K, Mass density=794.06 kg/m3 | 204.87
323.61 K, Mass density=794.06 kg/m3 | 208.36
323.85 K, Mass density=794.06 kg/m3 | 208.87
324.09 K, Mass density=794.06 kg/m3 | 208.06
324.33 K, Mass density=794.06 kg/m3 | 208.8
324.57 K, Mass density=794.06 kg/m3 | 208.8
324.81 K, Mass density=794.06 kg/m3 | 207.99
325.06 K, Mass density=794.06 kg/m3 | 209.76
325.3 K, Mass density=794.06 kg/m3 | 210.43
325.54 K, Mass density=794.06 kg/m3 | 211.25
325.78 K, Mass density=769.05 kg/m3 | 223.77
325.78 K, Mass density=794.06 kg/m3 | 210.73
326.02 K, Mass density=769.05 kg/m3 | 224.88
326.02 K, Mass density=794.06 kg/m3 | 211.32
326.26 K, Mass density=769.05 kg/m3 | 226.22
326.26 K, Mass density=794.06 kg/m3 | 213.03
326.5 K, Mass density=769.05 kg/m3 | 226.29
326.74 K, Mass density=769.05 kg/m3 | 227.11
326.98 K, Mass density=769.05 kg/m3 | 226.59
327.22 K, Mass density=769.05 kg/m3 | 226.59
327.22 K, Mass density=794.06 kg/m3 | 213.54
327.46 K, Mass density=794.06 kg/m3 | 212.51
327.7 K, Mass density=794.06 kg/m3 | 212.8
327.94 K, Mass density=794.06 kg/m3 | 212.73
328.18 K, Mass density=794.06 kg/m3 | 212.43
333.2 K, Mass density=769.05 kg/m3 | 231.33
333.44 K, Mass density=769.05 kg/m3 | 232.45
333.67 K, Mass density=769.05 kg/m3 | 231.78
333.91 K, Mass density=769.05 kg/m3 | 232.59
334.15 K, Mass density=769.05 kg/m3 | 232.82
334.39 K, Mass density=769.05 kg/m3 | 233.04
334.62 K, Mass density=769.05 kg/m3 | 232.82
334.86 K, Mass density=769.05 kg/m3 | 233.63
335.1 K, Mass density=769.05 kg/m3 | 234.15
335.33 K, Mass density=769.05 kg/m3 | 233.41
335.57 K, Mass density=769.05 kg/m3 | 225.63
335.81 K, Mass density=769.05 kg/m3 | 219.55
336.04 K, Mass density=769.05 kg/m3 | 213.77
336.28 K, Mass density=769.05 kg/m3 | 209.39
336.52 K, Mass density=769.05 kg/m3 | 207.32
336.75 K, Mass density=769.05 kg/m3 | 207.02
337.46 K, Mass density=769.05 kg/m3 | 204.72
337.93 K, Mass density=769.05 kg/m3 | 204.8
338.64 K, Mass density=769.05 kg/m3 | 204.35
339.34 K, Mass density=769.05 kg/m3 | 203.76
349.82 K, Mass density=735.98 kg/m3 | 241.34
350.05 K, Mass density=735.98 kg/m3 | 242.01
350.28 K, Mass density=735.98 kg/m3 | 243.56
350.51 K, Mass density=735.98 kg/m3 | 243.19
350.74 K, Mass density=735.98 kg/m3 | 243.49
352.35 K, Mass density=769.05 kg/m3 | 218.36
352.58 K, Mass density=769.05 kg/m3 | 219.99
353.27 K, Mass density=735.98 kg/m3 | 242.23
353.49 K, Mass density=735.98 kg/m3 | 245.19
353.72 K, Mass density=735.98 kg/m3 | 244.68
353.95 K, Mass density=735.98 kg/m3 | 243.34
354.18 K, Mass density=735.98 kg/m3 | 245.12
354.41 K, Mass density=735.98 kg/m3 | 243.86
354.64 K, Mass density=735.98 kg/m3 | 245.56
364.16 K, Mass density=735.98 kg/m3 | 251.2
364.39 K, Mass density=735.98 kg/m3 | 251.35
364.61 K, Mass density=735.98 kg/m3 | 252.01
364.84 K, Mass density=735.98 kg/m3 | 252.16
365.06 K, Mass density=735.98 kg/m3 | 251.79
365.29 K, Mass density=735.98 kg/m3 | 251.79
365.51 K, Mass density=735.98 kg/m3 | 252.01
366.41 K, Mass density=735.98 kg/m3 | 253.2
366.63 K, Mass density=735.98 kg/m3 | 248.46
366.86 K, Mass density=735.98 kg/m3 | 245.27
367.08 K, Mass density=735.98 kg/m3 | 226.44
367.31 K, Mass density=735.98 kg/m3 | 219.84
367.53 K, Mass density=735.98 kg/m3 | 215.18
367.75 K, Mass density=735.98 kg/m3 | 213.69
367.98 K, Mass density=735.98 kg/m3 | 212.88
368.2 K, Mass density=735.98 kg/m3 | 213.25
369.54 K, Mass density=735.98 kg/m3 | 213.69
369.76 K, Mass density=735.98 kg/m3 | 214.43
369.99 K, Mass density=735.98 kg/m3 | 214.66
371.32 K, Mass density=683.53 kg/m3 | 261.13
371.54 K, Mass density=683.53 kg/m3 | 261.43
371.77 K, Mass density=683.53 kg/m3 | 261.72
371.99 K, Mass density=683.53 kg/m3 | 263.06
372.21 K, Mass density=683.53 kg/m3 | 263.95
372.43 K, Mass density=683.53 kg/m3 | 260.76
372.65 K, Mass density=683.53 kg/m3 | 259.87
373.1 K, Mass density=735.98 kg/m3 | 216.29
373.32 K, Mass density=735.98 kg/m3 | 217.25
373.54 K, Mass density=735.98 kg/m3 | 217.99
373.76 K, Mass density=735.98 kg/m3 | 219.7
373.98 K, Mass density=735.98 kg/m3 | 219.03
374.21 K, Mass density=735.98 kg/m3 | 216.66
374.43 K, Mass density=735.98 kg/m3 | 217.4
374.65 K, Mass density=735.98 kg/m3 | 217.47
374.87 K, Mass density=735.98 kg/m3 | 218.51

Source: the NIST ThermoML archive (doi:10.1016/j.tca.2013.08.031)
